Measured values as given in BindingDB's records for doi:10.1124/mol.105.012005 (Wyeth Research, 2005).

Tests used:
[1] = molecular target: T1, Excitatory amino acid transporter 3 (Homo sapiens, UniProt P43005)
T1 sequence (P43005 whole entry): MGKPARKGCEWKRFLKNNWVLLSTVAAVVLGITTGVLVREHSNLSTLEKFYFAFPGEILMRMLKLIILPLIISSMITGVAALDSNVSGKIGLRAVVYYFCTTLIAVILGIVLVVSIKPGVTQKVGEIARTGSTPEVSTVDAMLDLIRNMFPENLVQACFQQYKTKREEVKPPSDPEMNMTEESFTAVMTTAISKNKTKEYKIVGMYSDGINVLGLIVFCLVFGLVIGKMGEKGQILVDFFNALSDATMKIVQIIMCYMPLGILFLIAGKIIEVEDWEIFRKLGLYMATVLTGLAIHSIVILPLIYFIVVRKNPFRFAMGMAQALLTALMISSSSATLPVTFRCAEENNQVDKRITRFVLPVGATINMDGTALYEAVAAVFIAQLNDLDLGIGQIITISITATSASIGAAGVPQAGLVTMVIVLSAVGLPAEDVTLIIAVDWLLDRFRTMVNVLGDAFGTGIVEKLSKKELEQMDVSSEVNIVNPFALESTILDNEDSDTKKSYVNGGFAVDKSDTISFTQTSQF

[2] = molecular target: Excitatory amino acid transporter 1 (Homo sapiens, UniProt P43003)
Sequence of Excitatory amino acid transporter 1 (P43003 whole entry): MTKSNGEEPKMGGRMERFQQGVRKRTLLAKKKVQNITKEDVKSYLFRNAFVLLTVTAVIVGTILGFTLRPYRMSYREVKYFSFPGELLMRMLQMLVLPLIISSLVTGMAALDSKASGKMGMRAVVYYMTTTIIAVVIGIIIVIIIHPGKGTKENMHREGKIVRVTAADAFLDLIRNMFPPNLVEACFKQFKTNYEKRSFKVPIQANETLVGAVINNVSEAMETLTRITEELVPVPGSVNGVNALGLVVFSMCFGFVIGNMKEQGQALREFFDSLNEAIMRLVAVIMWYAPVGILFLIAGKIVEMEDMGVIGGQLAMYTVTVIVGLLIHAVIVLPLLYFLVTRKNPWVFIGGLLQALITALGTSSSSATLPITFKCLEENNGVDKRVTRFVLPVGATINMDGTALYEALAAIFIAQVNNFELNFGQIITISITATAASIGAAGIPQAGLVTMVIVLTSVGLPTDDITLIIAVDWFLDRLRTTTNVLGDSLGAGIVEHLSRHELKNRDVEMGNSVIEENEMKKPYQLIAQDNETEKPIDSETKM

Cc1cc(C(=O)NC[C@H](N)C(=O)O)ccc1-c1ccc(Cl)cc1 [3-[3-Methyl-4-(4-chlorophenyl)benzoylamino]alanine]
IC50 [1]: 1450 nM

N[C@@H](CC(=O)Nc1ccc2c(c1)Cc1cc(C(F)(F)F)ccc1-2)C(=O)O [WAY-212922]
IC50 [2]: 3430 nM | IC50 [1]: 1840 nM

Cc1ccccc1-c1ccc(NC(=O)C[C@H](N)C(=O)O)cc1 [WAY-213394]
IC50 [2]: 1970 nM | IC50 [1]: 6560 nM
